Test results from US20110287069A1, “SOLID ORAL FORMULATIONS OF A PYRIDOPYRIMIDINONE” (priority 2009, published 2011).

Experiments:
[1] = solubility and dissolution rate in aqueous media; type: physicochemical
Description: Even at a lower pH of 1, the dissolution rate of (R)-2-amino-7-[4-fluoro-2-(6-methoxy-pyridin-2-yl)-phenyl]-4-methyl-7,8-dihydro-6H-pyrido[4,3-d]pyrimidin-5-one is too slow. The present inventors have discovered that, when (R)-2-amino-7-[4-fluoro-2-(6-methoxy-pyridin-2-yl)-phenyl]-4-methyl-7,8-dihydro-6H-pyrido[4,3-d]pyrimidin-5-one is in the presence of a surfactant or an acid, the problems of a low solubility and a slow dissolution rate are overcome, resulting in (R)-2-amino-7-[4-fluoro-2-(6-methoxy-pyridin-2-yl)-phenyl]-4-methyl-7,8-dihydro-6H-pyrido[4,3-d]pyrimidin-5-one being soluble in aqueous solution and a dissolution rate that is unexpectedly faster and higher.

[2] = particle size by laser light diffraction; type: physicochemical; settings: micronized, screened through #25 screen
Description: (R)-2-Amino-7-[4-fluoro-2-(6-methoxy-pyridin-2-yl)-phenyl]-4-methyl-7,8-dihydro-6H-pyrido[4,3-d]pyrimidin-5-one was micronized and screened through a #25 screen to a D average particle size of about 2 microns, with laser light diffraction yielding the following results: D(10) 0.78 μm, D(50) 2.18 μm, and D(90) 3.95 μm. The micronized (R)-2-amino-7-[4-fluoro-2-(6-methoxy-pyridin-2-yl)-phenyl]-4-methyl-7,8-dihydro-6H-pyrido[4,3-d]pyrimidin-5-one was then screened and added to a mixing bin along with the succinic acid and part A (50%) of the microcrystalline cellulose. The contents in the mixing bin were mixed for 150 revolutions, screened through a #40 screen and combine with a screened (#40 screen) mixture of AEROSIL 200, crospovidone, and the remaining other part B (50%) of the microcrystalline cellulose. This combination was mixed for 250 revolutions and screened through a #40 screen, and then combine with a first frozen and then milled mixture of vitamin E TPGS (screen no. 0063 using a Fitz mill) and magnesium stearate that was passed through at #30 mesh, to form a final combination, which was then blended together for 150 revolutions and encapsulated in a hard gelatin capsule using an encapsulation machine.

For `COc1cccc(-c2cc(F)ccc2[C@H]2Cc3nc(N)nc(C)c3C(=O)N2)n1` [(R)-2-amino-7-[4-fluoro-2-(6-methoxy-pyridin-2-yl)-phenyl]-4-methyl-7,8-dihydro-6H-pyrido[4,3-d]pyrimidin-5-one], which solubility ([1]; aqueous media with a pH above 3) is on record?
Its solubility is “very low solubility”.

And the dissolution rate ([1]; pH of 1)?
The dissolution rate was “too slow”.

What about the “D(10) particle size” value [2] of the same compound?
The value was 0.78 μm.

What about the “D(50) particle size” value [2] of the same compound?
The value was 2.18 μm.

And the “D(90) particle size” value [2]?
Its value is 3.95 μm.
